The record followed here is PubChem BioAssay (NCI).

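Step 1: Grow cells in 96-well plates. Step 2: Expose to compound for 48 hours at 5 concentrations. Step 3: Interpolate endpoints linearly; if unreached, use highest concentration. GI50 marks 50% less growth. TGI is the concentration that stops growth completely.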

Some test systems named below: SF-295 CNS; EKVX NSCLC; RXF 393 renal; 786-0 renal; NCI-H226 lung; UO-31 renal; SK-MEL-2 melanoma; SR leukemia; A498 renal; HL-60(TB) leukemia.
What all share (assay): NCI anticancer screen, dose series, 48 h

As to `COc1cc2ccnc3c2c(c1OC)-c1ccc(=O)ccc1-3`, the GI50 is 23.2 µM in the assay on SF-295 CNS; 29.8 µM in the assay with EKVX NSCLC; 18.7 µM in the assay on RXF 393 renal; 22.4 µM in the assay on 786-0 renal; 17.7 µM in the assay on NCI-H226 lung; 30 µM in the assay with UO-31 renal. Besides, the results for the GI50 in the assay on SK-MEL-2 melanoma and in the assay with SR leukemia were 52.6 µM and 2.95 µM, respectively. In addition, the TGI in the assay with SF-295 CNS is 67.8 µM; in the assay on EKVX NSCLC, 99 µM; in the assay with RXF 393 renal, 77 µM; in the assay on 786-0 renal it was over 100 µM; in the assay with NCI-H226 lung, 45.8 µM; in the assay with UO-31 renal, over 100 µM. The results for the TGI with SK-MEL-2 melanoma and in the assay on SR leukemia were over 100 µM and 21.4 µM, respectively.

As to `COc1cc(C(=O)C/C(CCC(=O)Nc2ccc(Cl)cc2Cl)=N/NC(=O)C(N)=O)ccc1O`, the TGI with SF-295 CNS, with EKVX NSCLC, in the assay on 786-0 renal, in the assay on A498 renal, in the assay with NCI-H226 lung and with UO-31 renal was over 100 µM in each case. The TGI with HL-60(TB) leukemia and in the assay on SK-MEL-2 melanoma was over 100 µM throughout.

For `O=C(O)C[O][Sb][O]CC(=O)O`, the GI50 in the assay with SF-295 CNS, in the assay on EKVX NSCLC, in the assay on RXF 393 renal, in the assay with 786-0 renal, in the assay on A498 renal and with NCI-H226 lung was over 100 µM throughout. The GI50 in the assay with UO-31 renal, with SK-MEL-2 melanoma and in the assay with SR leukemia was over 100 µM each time. Moreover, the TGI in the assay with SF-295 CNS, in the assay on EKVX NSCLC, in the assay with RXF 393 renal, in the assay on 786-0 renal, with A498 renal and in the assay on NCI-H226 lung was over 100 µM in each case. Also, the TGI in the assay with UO-31 renal, in the assay on SK-MEL-2 melanoma and with SR leukemia was over 100 µM in each case.

Take `CCC[CH2][Sn]([CH2]CCC)([O]C(=O)c1cc(OC)c(OC)cc1OC)[O]C(=O)c1cc(OC)c(OC)cc1OC`: the GI50 is 2.28 µM in the assay with SF-295 CNS; 1.64 µM in the assay on EKVX NSCLC; 0.327 µM in the assay with RXF 393 renal; 1.41 µM with 786-0 renal; 1.48 µM in the assay with A498 renal; 2.21 µM in the assay with NCI-H226 lung. Besides, the figures for the GI50 in the assay with UO-31 renal and with SK-MEL-2 melanoma were 1.57 µM and 1.26 µM, respectively. The TGI in the assay with SF-295 CNS came to 5.88 µM; in the assay on EKVX NSCLC, 4.83 µM; in the assay with RXF 393 renal, 1.47 µM; with 786-0 renal, 2.78 µM; with A498 renal, 3.21 µM; with NCI-H226 lung, 8.26 µM. Also, the TGI is 2.92 µM in the assay on UO-31 renal and 2.54 µM in the assay with SK-MEL-2 melanoma.

Regarding `CN(C)CCCNc1ccnc2cc([N+](=O)[O-])ccc12`, the TGI in the assay with SF-295 CNS came out at 54.9 µM; in the assay on RXF 393 renal, 26.3 µM; with 786-0 renal, 28.8 µM; in the assay with A498 renal, 31.7 µM; with NCI-H226 lung, 35 µM; with UO-31 renal it was 44.8 µM. The TGI in the assay with SK-MEL-2 melanoma is 29.7 µM; with SR leukemia, over 100 µM.

For the compound `COc1c(NC(=O)CC(C)=O)[c]([Hg][O]C(C)=O)c(OC)c(Cl)[c]1[Hg][O]C(C)=O`, the GI50 with SF-295 CNS was 17 µM; in the assay on EKVX NSCLC, 22.3 µM; in the assay with RXF 393 renal, 9.7 µM; with 786-0 renal, 6.47 µM; in the assay on NCI-H226 lung it was 17.7 µM; with UO-31 renal it was 16.2 µM. In addition, the GI50 in the assay on SK-MEL-2 melanoma was 14.4 µM; with SR leukemia, 3.67 µM. For the same compound, the TGI was determined as 31.8 µM in the assay on SF-295 CNS; 41.4 µM in the assay with EKVX NSCLC; 24.7 µM in the assay on RXF 393 renal; 18.8 µM with 786-0 renal; 33.9 µM in the assay on NCI-H226 lung; 29.7 µM in the assay with UO-31 renal. The TGI in the assay with SK-MEL-2 melanoma was 27.6 µM; in the assay on SR leukemia, 82.1 µM.

For the compound `ClC1=NC(Cl)C(Cl)=N/C1=N\c1ncn[nH]1` (configuration not stated), the GI50 in the assay on SF-295 CNS was 13.4 µM; in the assay with RXF 393 renal it was 1.71 µM; in the assay on 786-0 renal, 3.41 µM; in the assay with A498 renal, 17.8 µM; in the assay on NCI-H226 lung it was 3.27 µM; in the assay with UO-31 renal, 1.68 µM. The GI50 with SK-MEL-2 melanoma is 2.61 µM; in the assay with SR leukemia, 1.3 µM. Besides, the TGI in the assay on SF-295 CNS stood at 28.5 µM; in the assay with RXF 393 renal, 3.2 µM; in the assay on 786-0 renal, 11.4 µM; in the assay on A498 renal, 33.4 µM; in the assay with NCI-H226 lung, 15.9 µM; in the assay on UO-31 renal, 3.25 µM. The figures for the TGI in the assay with SK-MEL-2 melanoma and with SR leukemia were 5.63 µM and 3.63 µM, respectively.

In the case of `COc1cc(/C=C/c2ccc(OC(C)=O)cc2)cc(OC)c1OC`, the TGI in the assay on SF-295 CNS is 66.3 µM; in the assay on EKVX NSCLC it was over 100 µM; in the assay with RXF 393 renal, 39.2 µM; in the assay on 786-0 renal it was over 100 µM; with A498 renal it was 71.8 µM; in the assay on NCI-H226 lung, over 100 µM. The results for the TGI in the assay on UO-31 renal and in the assay with HL-60(TB) leukemia were 56.1 µM and 52.6 µM, respectively.

With `N#Cc1cccc(/C=C(/C(=O)c2ccccc2)c2ccccc2)c1`, the GI50 with SF-295 CNS was 4.23 µM; in the assay on RXF 393 renal, 3.72 µM; with 786-0 renal it was 6.73 µM; with A498 renal it was 4.08 µM; with NCI-H226 lung, 6.45 µM; in the assay with UO-31 renal, 5.31 µM. Further, the GI50 with SR leukemia was 2.94 µM. Also, the TGI in the assay on SF-295 CNS was 17.1 µM; with RXF 393 renal, 10.8 µM; with 786-0 renal, 23.8 µM; with A498 renal, 17.2 µM; with NCI-H226 lung, 26.7 µM; in the assay on UO-31 renal, 19 µM. The TGI in the assay with SR leukemia was over 100 µM.

`CCOC(=O)[C@H]1Nc2ccc(Cl)cc2[C@H]2OCC[C@@H]12`: the TGI in the assay on SF-295 CNS, in the assay with EKVX NSCLC, in the assay with RXF 393 renal, in the assay on 786-0 renal, with A498 renal and in the assay with NCI-H226 lung was over 100 µM throughout. The TGI in the assay with HL-60(TB) leukemia and with SK-MEL-2 melanoma was over 100 µM throughout.

As for `Cc1ccc(NC(=O)CC/C(CC(=O)c2ccc(F)cc2)=N\NC(=O)C(=O)NN)cc1C`, the TGI in the assay with SF-295 CNS, with EKVX NSCLC, in the assay with RXF 393 renal, in the assay on 786-0 renal, in the assay with A498 renal and with NCI-H226 lung was over 100 µM in each case. Further, the TGI in the assay with UO-31 renal, in the assay on HL-60(TB) leukemia and in the assay on SK-MEL-2 melanoma was over 100 µM throughout.
